PubChem BioAssay AID330 (DTP/NCI, 2004)
Several values for one entry are separate records, joined by “and”; a condition that tells them apart may be missing. Equal values may be shown once. Inconclusive results and toxic doses are left out.

Test system: P388 leukemia ip, CD2F1 mice, survival T/C
Assay: NCI In Vivo Anticancer Drug Screen. Data for tumor model P388 Leukemia (intraperitoneal) in CD2F1 (CDF1) mice
Conditions: endpoint: median survival time, higher = longer survival
How it was run: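 Mice carrying the transplanted tumor received test compound or vehicle. Survival was recorded in each group, and the value is the treated-group measurement divided by that of the vehicle-treated control group.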

[1] = dose: 50.0 mg/kg/injection, schedule: Q01DX005 (ip), vehicle: saline with Tween-80
[2] = dose: 100.0 mg/kg/injection, schedule: Q01DX005 (ip), vehicle: saline with Tween-80
[3] = dose: 200.0 mg/kg/injection, schedule: Q01DX005 (ip), vehicle: saline with Tween-80
[4] = dose: 60.0 mg/kg/injection, schedule: Q01DX005 (ip), vehicle: saline with Tween-80
[5] = dose: 120.0 mg/kg/injection, schedule: Q01DX005 (ip), vehicle: saline with Tween-80

For Cc1ccc(-c2nc(N)[nH]c2-c2ccc(C)cc2)cc1, the T/C (dose: 5.0 mg/kg/injection, schedule: Q04DX002 (ip), vehicle: saline with Tween-80) was 104 % of control, the T/C (dose: 10.0 mg/kg/injection, schedule: Q04DX002 (ip), vehicle: saline with Tween-80) was 100 % of control and the T/C (dose: 20.0 mg/kg/injection, schedule: Q04DX002 (ip), vehicle: saline with Tween-80) was 99 % of control.

CC(=O)c1cc2ccccc2c2ccccc12 was tested, and the T/C [1] was 98 % of control, the T/C [2] was 98 % of control and the T/C [3] was 96 % of control.

With CSc1ccccc1P(c1ccccc1)c1ccccc1 the T/C (dose: 50.0 mg/kg/injection, schedule: Q01DX009 (ip), vehicle: Klucel (hydroxypropylcellulose) (HPC)) was 109 % of control, the T/C (dose: 100.0 mg/kg/injection, schedule: Q01DX009 (ip), vehicle: Klucel (hydroxypropylcellulose) (HPC)) was 115 % of control and the T/C (dose: 200.0 mg/kg/injection, schedule: Q01DX009 (ip), vehicle: Klucel (hydroxypropylcellulose) (HPC)) was 105 % of control.

For COc1ccc(/C=N/NC(=O)c2ccc(OCc3nc4ccccc4[nH]3)cc2)cc1, the T/C (dose: 25.0 mg/kg/injection, schedule: Q01DX005 (ip), vehicle: saline with Tween-80) was 100 % of control, the T/C [1] was 105 % of control and the T/C [2] was 100 % of control. For the same compound, the T/C [3] was 100 % of control.

For Cc1ccc(CCNC(=O)c2c3nc4c(C(=O)NCCc5ccc(C)cc5)ccc(Br)c4oc-3c(Br)c(=O)c2N)cc1, the T/C [1] was 93 % of control, the T/C [2] was 86 % of control and the T/C [3] was 106 % of control.

O=NNc1nc2ncccc2cc1-c1ccccc1Cl was tested, and the T/C (dose: 3.12 mg/kg/injection, schedule: Q01DX009 (ip), vehicle: water) was 110 % of control and 111 % of control and 124 % of control, the T/C (dose: 6.25 mg/kg/injection, schedule: Q01DX009 (ip), vehicle: water) was 111 % of control and the T/C (dose: 12.5 mg/kg/injection, schedule: Q01DX009 (ip), vehicle: water) was 108 % of control and 113 % of control. For the same compound, the T/C (dose: 25.0 mg/kg/injection, schedule: Q01DX009 (ip), vehicle: water) was 94 % of control and 95 % of control.

With CCOC(=O)c1ccc(NC(=O)Oc2cc(=O)oc3ccccc23)cc1 the T/C [4] was 91 % of control, the T/C [5] was 94 % of control and the T/C (dose: 240.0 mg/kg/injection, schedule: Q01DX005 (ip), vehicle: saline with Tween-80) was 99 % of control.

O=C1C2=C(Nc3cc([N+](=O)[O-])ccc3N2)OC1c1c[nH]c2ccc(COc3ccccc3)cc12 (configuration not stated) was tested, and the T/C [4] was 93 % of control and the T/C [5] was 94 % of control.

For CCC[CH2][Sn]([CH2]CCC)([CH2]CCC)[CH2]CCN(C)C, the T/C (dose: 50.0 mg/kg/injection, schedule: Q01DX009 (ip), vehicle: saline) was 99 % of control and the T/C (dose: 100.0 mg/kg/injection, schedule: Q01DX009 (ip), vehicle: saline) was 100 % of control.

With ClCCN(CCCN(CCCl)c1ccccc1)c1ccccc1 the T/C (dose: 200.0 mg/kg/injection, schedule: Q01DX001 (ip), vehicle: saline with Tween-80) was 164 % of control, the T/C (dose: 400.0 mg/kg/injection, schedule: Q01DX001 (ip), vehicle: saline with Tween-80) was 150 % of control and 157 % of control and the T/C (dose: 800.0 mg/kg/injection, schedule: Q01DX001 (ip), vehicle: saline with Tween-80) was 160 % of control.

With CCNC(=O)C(CCO)NC(=O)OCc1ccccc1 (configuration not stated) the T/C (dose: 12.5 mg/kg/injection, schedule: Q01DX009 (ip), vehicle: distilled water + Tween-80) was 118 % of control, the T/C (dose: 25.0 mg/kg/injection, schedule: Q01DX009 (ip), vehicle: distilled water + Tween-80) was 101 % of control and the T/C (dose: 50.0 mg/kg/injection, schedule: Q01DX009 (ip), vehicle: distilled water + Tween-80) was 110 % of control.

In the case of O=C(CC1NCCCC1O)Cn1cnc2ccccc2c1=O (configuration not stated), the T/C (dose: 1.0 mg/kg/injection, schedule: Q01DX009 (ip), vehicle: distilled water + alcohol) is reported as 116 % of control, the T/C (dose: 2.0 mg/kg/injection, schedule: Q01DX009 (ip), vehicle: distilled water + alcohol) is reported as 107 % of control and the T/C (dose: 4.0 mg/kg/injection, schedule: Q01DX009 (ip), vehicle: distilled water + alcohol) is reported as 107 % of control.

CC(C)(Cc1nocc1C(C)(C)CC#N)c1cc(CC(C)(C)C2(C)OCCO2)no1 was tested, and the T/C [4] was 95 % of control and the T/C [5] was 88 % of control.

For CC(C)OC1CC(C)(O)Cc2cc3c(c(O)c21)C(=O)c1c(O)cc2c(c1C3=O)OC1OC2(C)C(O)C(N(C)C)C1O (configuration not stated), the T/C (dose: 2.0 mg/kg/injection, schedule: Q01DX009 (ip), vehicle: other) was 101 % of control, the T/C (dose: 4.0 mg/kg/injection, schedule: Q01DX009 (ip), vehicle: other) was 120 % of control and the T/C (dose: 8.0 mg/kg/injection, schedule: Q01DX009 (ip), vehicle: other) was 106 % of control. For the same compound, the T/C (dose: 16.0 mg/kg/injection, schedule: Q01DX009 (ip), vehicle: other) was 87 % of control.
